Source: paper PMC4508061, “Selectivity Profiling and Biological Activity of Novel β-Carbolines as Potent and Selective DYRK1 Kinase Inhibitors” (PLoS ONE, 2015)

Tests used:
Experiment in all cases: ProQinase radiometric kinase panel
Conditions in all cases: mean of 2 exp.
ACK1 = ACK1 (Homo sapiens, UniProt Q07912)
ACV-R2A = ACV-R2A (Homo sapiens, UniProt P27037)
ACV-RL1 = ACV-RL1 (Homo sapiens, UniProt P37023)
CDC42BPB = CDC42BPB (Homo sapiens, UniProt Q9Y5S2)
CDK1/CycB1 = CDK1/CycB1 (Homo sapiens, UniProt P06493)
CDK9/CycT1 = CDK9/CycT1 (Homo sapiens, UniProt P50750)
EGF-R = EGF-R (Homo sapiens, UniProt P00533)
EIF2AK3 = EIF2AK3 (Homo sapiens, UniProt Q9NZJ5)
EPHA7 = EPHA7 (Homo sapiens, UniProt Q15375)
ERK7 = ERK7 (Homo sapiens, UniProt Q8TD08)
FGF-R2 = FGF-R2 (Homo sapiens, UniProt P21802)
FYN = FYN (Homo sapiens, UniProt P06241)
GRK3 = GRK3 (Homo sapiens, UniProt P35626)
IKK-beta = IKK-beta (Homo sapiens, UniProt O14920)
INS-R = INS-R (Homo sapiens, UniProt P06213)
ITK = ITK (Homo sapiens, UniProt Q08881)
LCK = LCK (Homo sapiens, UniProt P06239)
Description: Gini coefficients were calculated and the Lorenz curve (Fig 3B) was plotted by applying the Microsoft Excel spreadsheet provided by Graczyk [44].
radiometric protein kinase assays.

MEKK2 = MEKK2 (Homo sapiens, UniProt Q9Y2U5)
mTOR = mTOR (Homo sapiens, UniProt P42345)
MYLK2 = MYLK2 (Homo sapiens, UniProt Q9H1R3)
NIK = NIK (Homo sapiens, UniProt Q99558)
p38-delta = p38-delta (Homo sapiens, UniProt O15264)
PAK7 = PAK7 (Homo sapiens, UniProt Q9P286)
PASK = PASK (Homo sapiens, UniProt Q96RG2)
PDGFR-beta = PDGFR-beta (Homo sapiens, UniProt P09619)
PKC-beta1 = PKC-beta1 (Homo sapiens, UniProt P05771)
PLK3 = PLK3 (Homo sapiens, UniProt Q9H4B4)
PRKG1 = PRKG1 (Homo sapiens, UniProt Q13976)
PRKG2 = PRKG2 (Homo sapiens, UniProt Q13237)
RPS6KA4 = RPS6KA4 (Homo sapiens, UniProt O75676)
RPS6KA5 = RPS6KA5 (Homo sapiens, UniProt O75582)
SGK2 = SGK2 (Homo sapiens, UniProt Q9HBY8)
SNARK = SNARK (Homo sapiens, UniProt Q9H093)
STK17A = STK17A (Homo sapiens, UniProt Q9UEE5)
TGFB-R1 = TGFB-R1 (Homo sapiens, UniProt P36897)
TRK-A = TRK-A (Homo sapiens, UniProt P04629)
TRK-B = TRK-B (Homo sapiens, UniProt Q16620)
TTK = TTK (Homo sapiens, UniProt P33981)
WNK3 = WNK3 (Homo sapiens, UniProt Q9BYP7)

Sequence of EGF-R (P00533 25-1210): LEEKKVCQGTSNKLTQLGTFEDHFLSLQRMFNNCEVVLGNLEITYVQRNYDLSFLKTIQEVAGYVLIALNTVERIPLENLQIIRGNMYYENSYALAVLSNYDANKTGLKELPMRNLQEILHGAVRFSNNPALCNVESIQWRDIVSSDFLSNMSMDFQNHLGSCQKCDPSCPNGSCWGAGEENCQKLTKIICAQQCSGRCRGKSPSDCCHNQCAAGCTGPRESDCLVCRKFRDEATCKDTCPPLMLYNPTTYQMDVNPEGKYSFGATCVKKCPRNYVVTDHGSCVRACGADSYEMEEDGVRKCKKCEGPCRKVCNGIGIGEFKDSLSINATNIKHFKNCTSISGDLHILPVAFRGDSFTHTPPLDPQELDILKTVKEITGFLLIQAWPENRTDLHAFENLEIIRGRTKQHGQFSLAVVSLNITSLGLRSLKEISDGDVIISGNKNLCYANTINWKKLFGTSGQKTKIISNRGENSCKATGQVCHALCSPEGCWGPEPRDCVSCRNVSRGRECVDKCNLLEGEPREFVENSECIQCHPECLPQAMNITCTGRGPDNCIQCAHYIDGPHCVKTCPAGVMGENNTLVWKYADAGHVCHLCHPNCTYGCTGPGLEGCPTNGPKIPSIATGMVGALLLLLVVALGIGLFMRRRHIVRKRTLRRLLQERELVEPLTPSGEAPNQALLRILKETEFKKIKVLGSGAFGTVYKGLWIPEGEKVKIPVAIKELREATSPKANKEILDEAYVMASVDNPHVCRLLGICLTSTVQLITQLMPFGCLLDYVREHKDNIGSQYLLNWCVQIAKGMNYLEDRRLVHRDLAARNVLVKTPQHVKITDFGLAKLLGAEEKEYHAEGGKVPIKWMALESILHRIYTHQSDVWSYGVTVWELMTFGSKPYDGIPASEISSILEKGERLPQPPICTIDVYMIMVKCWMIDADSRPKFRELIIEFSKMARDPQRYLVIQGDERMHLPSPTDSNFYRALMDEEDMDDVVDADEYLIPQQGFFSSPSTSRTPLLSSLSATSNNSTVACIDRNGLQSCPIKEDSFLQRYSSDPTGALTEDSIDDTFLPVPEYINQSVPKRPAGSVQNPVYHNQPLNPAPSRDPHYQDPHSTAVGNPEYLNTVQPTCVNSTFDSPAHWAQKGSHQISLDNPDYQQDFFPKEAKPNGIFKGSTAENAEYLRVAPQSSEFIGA
Sequence of PRKG1 (Q13976 whole entry): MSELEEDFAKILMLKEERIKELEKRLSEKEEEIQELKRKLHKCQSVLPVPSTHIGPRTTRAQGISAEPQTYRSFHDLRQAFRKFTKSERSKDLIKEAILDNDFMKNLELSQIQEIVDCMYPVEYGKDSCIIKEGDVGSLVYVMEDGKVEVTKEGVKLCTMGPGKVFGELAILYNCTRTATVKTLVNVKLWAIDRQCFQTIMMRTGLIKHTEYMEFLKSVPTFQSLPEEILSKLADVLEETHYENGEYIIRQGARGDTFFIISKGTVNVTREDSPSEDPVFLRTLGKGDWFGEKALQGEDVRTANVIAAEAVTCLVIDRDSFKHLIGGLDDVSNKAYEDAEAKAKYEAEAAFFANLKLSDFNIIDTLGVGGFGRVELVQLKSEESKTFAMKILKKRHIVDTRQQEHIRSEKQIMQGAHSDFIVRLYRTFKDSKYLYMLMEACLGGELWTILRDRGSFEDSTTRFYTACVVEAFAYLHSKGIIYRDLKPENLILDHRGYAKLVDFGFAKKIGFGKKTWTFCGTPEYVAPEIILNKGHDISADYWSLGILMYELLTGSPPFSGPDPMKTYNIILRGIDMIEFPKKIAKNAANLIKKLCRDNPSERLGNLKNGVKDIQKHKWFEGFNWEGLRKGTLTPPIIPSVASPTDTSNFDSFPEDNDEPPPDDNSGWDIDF
Sequence of MYLK2 (Q9H1R3 whole entry): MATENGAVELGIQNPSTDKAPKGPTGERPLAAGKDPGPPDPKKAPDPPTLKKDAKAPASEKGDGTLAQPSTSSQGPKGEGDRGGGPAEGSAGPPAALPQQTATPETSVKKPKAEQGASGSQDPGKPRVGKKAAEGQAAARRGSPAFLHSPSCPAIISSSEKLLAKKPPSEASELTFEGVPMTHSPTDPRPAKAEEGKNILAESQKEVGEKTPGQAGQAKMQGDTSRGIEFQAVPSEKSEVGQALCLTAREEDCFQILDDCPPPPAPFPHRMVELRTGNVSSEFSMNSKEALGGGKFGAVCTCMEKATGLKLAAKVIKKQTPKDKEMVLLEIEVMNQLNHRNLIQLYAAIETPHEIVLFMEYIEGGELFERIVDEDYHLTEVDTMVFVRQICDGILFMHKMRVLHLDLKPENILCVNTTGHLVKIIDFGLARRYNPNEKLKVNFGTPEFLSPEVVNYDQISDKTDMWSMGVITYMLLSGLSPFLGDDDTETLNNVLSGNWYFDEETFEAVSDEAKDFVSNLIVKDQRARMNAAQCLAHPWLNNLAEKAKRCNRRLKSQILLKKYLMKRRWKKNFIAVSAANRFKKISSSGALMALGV
Sequence of CDK9/CycT1 (P50750 whole entry): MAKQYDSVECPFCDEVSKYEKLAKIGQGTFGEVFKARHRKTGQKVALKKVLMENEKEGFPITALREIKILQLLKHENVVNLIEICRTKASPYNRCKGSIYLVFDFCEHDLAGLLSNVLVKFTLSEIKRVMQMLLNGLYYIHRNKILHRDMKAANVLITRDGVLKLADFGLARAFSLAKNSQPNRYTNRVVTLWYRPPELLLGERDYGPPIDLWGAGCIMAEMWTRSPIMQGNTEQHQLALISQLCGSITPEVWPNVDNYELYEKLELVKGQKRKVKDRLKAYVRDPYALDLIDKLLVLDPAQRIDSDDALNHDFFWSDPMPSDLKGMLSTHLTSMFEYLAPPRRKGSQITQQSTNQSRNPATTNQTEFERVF
Sequence of CDK9/CycT1 (O60563 whole entry partner): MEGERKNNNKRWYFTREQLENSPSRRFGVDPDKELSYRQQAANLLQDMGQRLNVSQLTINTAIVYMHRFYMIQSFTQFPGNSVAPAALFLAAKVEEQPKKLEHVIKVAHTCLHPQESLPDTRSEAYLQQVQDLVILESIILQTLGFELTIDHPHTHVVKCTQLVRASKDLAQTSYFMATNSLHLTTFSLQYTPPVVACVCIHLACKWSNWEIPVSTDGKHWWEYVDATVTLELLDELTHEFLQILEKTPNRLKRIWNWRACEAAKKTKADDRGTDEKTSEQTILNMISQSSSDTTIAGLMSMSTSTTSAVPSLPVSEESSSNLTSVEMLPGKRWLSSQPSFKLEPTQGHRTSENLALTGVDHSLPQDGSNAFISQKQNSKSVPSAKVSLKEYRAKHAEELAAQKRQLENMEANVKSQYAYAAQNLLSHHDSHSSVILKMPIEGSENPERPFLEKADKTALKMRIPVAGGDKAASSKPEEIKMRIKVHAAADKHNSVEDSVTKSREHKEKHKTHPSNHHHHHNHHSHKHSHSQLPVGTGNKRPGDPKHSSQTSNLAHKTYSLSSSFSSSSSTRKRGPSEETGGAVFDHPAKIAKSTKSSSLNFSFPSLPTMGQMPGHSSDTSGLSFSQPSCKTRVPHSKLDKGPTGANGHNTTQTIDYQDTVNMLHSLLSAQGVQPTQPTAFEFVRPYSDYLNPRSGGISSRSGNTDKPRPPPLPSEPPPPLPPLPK
Sequence of SGK2 (Q9HBY8 whole entry): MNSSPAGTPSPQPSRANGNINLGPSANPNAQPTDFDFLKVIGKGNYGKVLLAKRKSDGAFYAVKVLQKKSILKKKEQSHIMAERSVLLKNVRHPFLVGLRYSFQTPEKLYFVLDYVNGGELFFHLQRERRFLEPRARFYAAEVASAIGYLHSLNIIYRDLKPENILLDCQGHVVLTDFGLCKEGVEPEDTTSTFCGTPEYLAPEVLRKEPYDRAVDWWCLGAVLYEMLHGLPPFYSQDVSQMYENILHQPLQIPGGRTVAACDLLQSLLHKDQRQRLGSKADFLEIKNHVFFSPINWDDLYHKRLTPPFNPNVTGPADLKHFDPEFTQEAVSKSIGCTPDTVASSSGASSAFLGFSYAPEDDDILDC
Sequence of p38-delta (O15264 whole entry): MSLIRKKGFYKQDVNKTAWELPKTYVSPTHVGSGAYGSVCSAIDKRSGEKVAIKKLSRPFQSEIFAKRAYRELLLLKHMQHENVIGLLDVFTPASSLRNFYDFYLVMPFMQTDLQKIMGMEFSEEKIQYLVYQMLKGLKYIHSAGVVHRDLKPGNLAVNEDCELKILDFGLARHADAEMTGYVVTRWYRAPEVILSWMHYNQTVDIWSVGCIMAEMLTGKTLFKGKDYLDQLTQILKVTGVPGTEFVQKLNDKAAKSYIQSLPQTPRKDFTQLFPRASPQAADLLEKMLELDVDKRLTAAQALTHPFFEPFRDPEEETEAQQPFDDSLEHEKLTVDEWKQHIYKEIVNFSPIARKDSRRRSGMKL
Sequence of CDK1/CycB1 (P06493 whole entry): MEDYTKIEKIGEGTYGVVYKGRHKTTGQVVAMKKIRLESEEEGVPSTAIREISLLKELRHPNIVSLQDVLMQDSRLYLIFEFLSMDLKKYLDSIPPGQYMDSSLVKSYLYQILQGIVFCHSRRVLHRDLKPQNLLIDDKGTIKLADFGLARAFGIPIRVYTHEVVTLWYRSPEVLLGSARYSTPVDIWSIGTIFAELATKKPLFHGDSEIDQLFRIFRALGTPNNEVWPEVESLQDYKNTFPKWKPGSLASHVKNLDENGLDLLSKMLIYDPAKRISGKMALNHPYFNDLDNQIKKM
Sequence of CDK1/CycB1 (P14635 whole entry partner): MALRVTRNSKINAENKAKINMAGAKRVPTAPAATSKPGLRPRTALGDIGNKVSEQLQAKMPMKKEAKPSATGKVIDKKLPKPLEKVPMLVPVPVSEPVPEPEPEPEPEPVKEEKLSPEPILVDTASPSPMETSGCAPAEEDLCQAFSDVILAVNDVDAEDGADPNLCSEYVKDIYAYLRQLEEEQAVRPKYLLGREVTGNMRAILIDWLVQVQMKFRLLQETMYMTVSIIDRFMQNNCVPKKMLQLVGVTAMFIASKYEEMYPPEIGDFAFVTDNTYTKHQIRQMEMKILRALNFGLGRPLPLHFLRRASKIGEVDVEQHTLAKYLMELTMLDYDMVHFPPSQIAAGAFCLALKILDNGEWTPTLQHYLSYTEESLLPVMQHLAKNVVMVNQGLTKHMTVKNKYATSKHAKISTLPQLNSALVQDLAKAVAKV

- residual activity at 1 µM, Mean (ACK1): 97 % of control
- residual activity at 1 µM, Mean (ACV-R2A): 97 % of control
- residual activity at 1 µM, Mean (ACV-RL1): 91 % of control
- residual activity at 1 µM, Mean (CDC42BPB): 94 % of control
- residual activity at 1 µM, Mean (CDK1/CycB1): 81 % of control
- residual activity at 1 µM, Mean (CDK9/CycT1): 85 % of control
- residual activity at 1 µM, Mean (EGF-R): 104 % of control
- residual activity at 1 µM, Mean (EIF2AK3): 99 % of control
- residual activity at 1 µM, Mean (EPHA7): 107 % of control
- residual activity at 1 µM, Mean (FGF-R2): 85 % of control
- residual activity at 1 µM, Mean (FYN): 92 % of control
- residual activity at 1 µM, Mean (GRK3): 92 % of control
- residual activity at 1 µM, Mean (IKK-beta): 91 % of control
- residual activity at 1 µM, Mean (INS-R): 92 % of control
- residual activity at 1 µM, Mean (ITK): 95 % of control
- residual activity at 1 µM, Mean (LCK): 91 % of control
- residual activity at 1 µM, Mean (MEKK2): 105 % of control
- residual activity at 1 µM, Mean (mTOR): 90 % of control
- residual activity at 1 µM, Mean (MYLK2): 90 % of control
- residual activity at 1 µM, Mean (NIK): 87 % of control
- residual activity at 1 µM, Mean (p38-delta): 89 % of control
- residual activity at 1 µM, Mean (PAK7): 90 % of control
- residual activity at 1 µM, Mean (PASK): 74 % of control
- residual activity at 1 µM, Mean (PDGFR-beta): 88 % of control
- residual activity at 1 µM, Mean (PKC-beta1): 93 % of control
- residual activity at 1 µM, Mean (PLK3): 96 % of control
- residual activity at 1 µM, Mean (PRKG1): 87 % of control
- residual activity at 1 µM, Mean (PRKG2): 85 % of control
- residual activity at 1 µM, Mean (RPS6KA4): 95 % of control
- residual activity at 1 µM, Mean (RPS6KA5): 96 % of control
- residual activity at 1 µM, Mean (SGK2): 99 % of control
- residual activity at 1 µM, Mean (SNARK): 95 % of control
- residual activity at 1 µM, Mean (STK17A): 89 % of control
- residual activity at 1 µM, Mean (TGFB-R1): 104 % of control
- residual activity at 1 µM, Mean (TRK-A): 84 % of control
- residual activity at 1 µM, Mean (TRK-B): 72 % of control
- residual activity at 1 µM, Mean (TTK): 91 % of control
- residual activity at 1 µM, Mean (WNK3): 94 % of control
SMILES: COc1ccc2c3ccnc(Cl)c3n(CC#N)c2c1 [AnnH75]
- residual activity at 1 µM, Mean (ERK7): 59 % of control
